In patent US20220119868A1, “PROFILING RNA-SMALL MOLECULE BINDING SITES WITH OLIGONUCLEOTIDES” (priority 2018, published 2022):
Several values for one entry are separate records, joined by “and”; a condition that tells them apart may be missing. Equal entries are not always repeated.

Tests used:
[1] = target: Fully paired RNA; test: In solution, fluorescence-based binding affinity assay
Description: (§1) Affinity of Selected RNA Motif-Small Molecule Interactions. The affinity of exemplar compounds that have inherent fluorescence was measured. […] . Binding affinities were confirmed using a label-free method, biolayer interferometry.
(§2) where n1 is the size of Population 1 (number of sequencing reads for a given RNA from RNA-seq analysis of the selected library), n2 is the size of Population 2 (number of sequencing reads for the same RNA from RNA-seq analysis of the starting library), p1 is the observed proportion of Population 1 (the number of reads for a given RNA from selected library/total number of reads), and p2 is the observed proportion for Population 2 (the number of reads for the same RNA in the starting library/total number of reads). Generation of Logos and DiffLogos: Zobs corresponding to the highest (enriched) 0.5% and lowest (discriminated against) 0.5% scores were analyzed to generate consensus sequences, or Logos. The resulting list of sequences were converted to position weight matrix (PWM) lists for each compound. “Enriched” and “discriminated” sequences were kept separate using JMP®, Version <13.2.1>. SAS Institute Inc., Cary, N.C., 1989-2007. The R package Difflogo,^16 which is part of Bioconductor, was utilized to create the sequence logos from PWM lists for each compound and visually compare the differences between them. Binding Affinity Measurements. Dissociation constants were determined using an in solution, fluorescence-based assay. […] Serial dilutions (1:2) of the small molecule were then completed in 1× Assay Buffer supplemented with 1 mM MgCl2. The solutions were incubated for 30 min at room temperature, transferred to a 96-well plate, and fluorescence intensity measured on a BioTek-FLx800 plate reader. The change in fluorescence intensity as a function of small molecule concentration was fit to a one site binding model per equation 3: […]
(§3) Effect of compounds on HCV replication. […] Cytotoxicity assays. […] Oligonucleotide profiling of target engagement in vitro. […] Primers can be found in Table 4. […] Inhibition of kinases. […] . Figure S7C).

[2] = target: RNA motif 5′UUA3′/3′A_U5′ (from RNA library C); test: as above
Description: as §1, §2, §3

[3] = target: HCV RNA motif 5′CUG3′/3′G_C5′ (SL II); test: In solution, fluorescence-based binding affinity assay, HCV RNA motifs; set-up: species or system Hepatitis C virus
From the text: (§4) The compounds bind their cognate loops in the 3′ UTR with mid-nanomolar to low micromolar affinities (Table 1). It was next determined if the identified compounds could inhibit HCV RNA replication in HCV subgenomic replicon cells, in particular SGR-Neo-RLuc-JFH1-2A replicon cells established in Huh-7.5 (human hepatoma cells). In this system, an autonomously replicating viral RNA replicon is used to monitor efficiently RNA replication of the virus in the absence of spread of viral RNA to adjacent cells. This is achieved by replacing the structural proteins required to assembly progeny virions with a drug selectable marker (Neo) and a Renilla luciferase (RLuc) reporter gene. Once this replicon has been delivered to human hepatoma cells and selection with G418 (conferred by Neo selectable marker) has occurred, the expression and Renilla luciferase activity is directly correlated with the level of HCV replication^57.
as §2, §3

[4] = target: HCV RNA motif 5′GUG3′/3′C_C5′ (SL I and SL III); test: as above; set-up: species or system Hepatitis C virus
From the text: as §4, §2, §3

[5] = target: HCV RNA motif 5′UAG3′/3′A_C5′ (SL I); test: as above; set-up: species or system Hepatitis C virus
From the text: as §4, §2, §3

[6] = tested on: HCV replication, SGR-Neo-RLuc-JFH1-2A replicon cells established in Huh-7.5; test: HCV replication in subgenomic replicon cells (Renilla luciferase); format: cell-based, Hepatitis C virus; conditions: for IC50: Hepatitis C virus, Huh7.5, read-out: IC50, inhibition of HCV replication
From the text: as §4
They were therefore assayed for their ability to inhibit HCV replication using this replicon system, with DMSO vehicle and 2′-C-methyladenosine^17 triphosphate serving as negative and positive controls, respectively.
as §3

[7] = tested on: panel of 22 kinases; test: In vitro inhibition of a panel of kinases; format: biochemical; conditions: 20 μM; for kinases inhibited in the panel: panel of 22 kinases
[8] = target: CAMK4 (Homo sapiens, UniProt Q16566); test: In vitro inhibition of a panel of kinases; format: biochemical; conditions: 20 μM
Sequence of CAMK4 (Q16566 whole entry): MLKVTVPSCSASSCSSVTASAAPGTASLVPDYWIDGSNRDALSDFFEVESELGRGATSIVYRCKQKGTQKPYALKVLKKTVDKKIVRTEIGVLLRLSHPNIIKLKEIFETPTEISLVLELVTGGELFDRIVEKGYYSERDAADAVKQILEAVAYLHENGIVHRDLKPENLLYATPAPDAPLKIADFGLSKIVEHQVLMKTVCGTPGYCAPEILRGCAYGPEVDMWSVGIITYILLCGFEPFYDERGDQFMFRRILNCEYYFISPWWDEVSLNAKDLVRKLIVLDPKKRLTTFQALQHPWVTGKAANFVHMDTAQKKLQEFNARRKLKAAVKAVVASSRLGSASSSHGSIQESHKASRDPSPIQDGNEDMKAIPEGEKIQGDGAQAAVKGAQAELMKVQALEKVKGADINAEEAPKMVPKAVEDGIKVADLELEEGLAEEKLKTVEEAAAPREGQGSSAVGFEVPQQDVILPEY
From the text: as §3

O=C(Nc1ccc(C2=NCCN2)cc1)c1cc(C(=O)Nc2ccc(C3=NCCN3)cc2)cc(C(=O)Nc2ccc(C3=NCCN3)cc2)c1 [Compound 8]
Kd [1]: > 5 µM | Kd [2]: 0.69 µM and 0.53 µM | Kd [3]: 1.4 ± 0.211 µM | Kd [4]: 1.4 ± 0.16 µM | Kd [5]: 0.849 ± 0.15 µM | IC50 [6]: 14 ± 1 µM | effect on viral replication together with ASO ([6]; with ASO Control binding 750 nucleotides downstream): less robust | effect on viral replication together with ASO ([6]; with ASO complementary to SL I, luciferase): synergistic effect | kinases inhibited in the panel [7]: affected seven kinases modestly | average percent inhibition of the seven affected kinases [7]: 14±3% | inhibition of CAMK4 in vitro [8]: most significantly inhibited

O=C(Nc1cccc(NC(=O)Nc2cc(C(=O)Nc3ccc(C4=NCCN4)cc3)ccc2C(=O)Nc2ccc(C3=NCCN3)cc2)c1)Nc1cc(C(=O)Nc2ccc(C3=NCCN3)cc2)ccc1C(=O)Nc1ccc(C2=NCCN2)cc1 [Compound 7]
Kd [1]: > 7 µM | Kd [2]: 0.38 ± 0.026 µM | Kd [3]: 0.82 ± 0.082 µM | Kd [4]: 0.47 ± 0.032 µM | Kd [5]: 0.46 ± 0.07 µM | IC50 [6]: 17 ± 0.5 µM | kinases inhibited in the panel [7]: affected seven kinases modestly | average percent inhibition of the seven affected kinases [7]: 16±3% | inhibition of CAMK4 in vitro [8]: most significantly inhibited
